Assay [1] concerns ATXN3 transcripts containing exon 4. Put plainly: ATXN3 Quantitative Splicing Assay (qPCR, E4E5 primers/probe). In kind it is cell-based. Conditions: Homo sapiens, SK-N-MC cells, compounds for 24 h. Summed up:
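SK-N-MC human neuroblastoma cells treated 24 h with compound from 30 μM to 0.6 nM, 24 h after plating. Lysate cDNA was run in TaqMan qPCR, with primers/probe E4E5 detecting exon 4-containing ATXN3 transcripts and E8E9 measuring total ATXN3.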
Background: Real-time PCR tracks product formation cycle by cycle.

Assay [2] deals with total ATXN3 protein. Put plainly: ATXN3 Total Protein Assay (Mesoscale Discovery, SK-N-MC cells). It is filed as cell-based, Human. As to conditions: incubation for 48 hours, MSD assay. Summed up: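 Human SK-N-MC neuroblastoma cells treated with compound at 30 μM to 0.6 nM for 48 h, then lysed with protease inhibitors. Total ATXN3 quantified by MSD sandwich immunoassay (mouse capture, rabbit detect antibodies, anti-rabbit MSD-ST secondary) against recombinant ATXN3 standards.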

Assay [3] relates to ATXN3-HiBiT protein. Put plainly: ATXN3 Total Protein Assay (Kelly-ATXN3-HiBiT luminescence). In kind it is cell-based. Conditions: Kelly-ATXN3-HiBiT cells, 48 h after addition of compound. Summed up: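 Kelly cells with homozygous C-terminal HiBiT knock-in on endogenous ATXN3, 2000 per well, dosed 24 h after seeding. HiBiT lytic luminescence read 48 h after compound; sister plate read with CellTiter-Glo for viability; fold change vs DMSO.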

In general, IC50 refers to the concentration that gives 50% inhibition. Low values mean greater potency, high ones weaker potency. The EC50 is the concentration giving half of the maximal effect.

On to `C#Cc1c(C[C@@H](N)COC)oc2c(NCc3cccs3)cc(Cl)nc12` [Compound 61, 2-[(R)-2-amino-3-methoxypropyl]-5-chloro-3-ethynyl-7-thenylamino-1-oxa-4-azaindene], for which the IC50 in assay [1] and in assay [2] was 0.01 to 100 nM each time. Also, in assay [3], the EC50 lay within 0.01 to 100 nM.

For the compound `C[C@H](F)[C@H](N)Cc1oc2c(NCc3cccs3)cc(Cl)nc2c1Br` [Compound 43, 2-[(2R,3S)-2-amino-3-fluorobutyl]-3-bromo-5-chloro-N-(thiophen-2-ylmethyl)furo[3,2-b]pyridin-7-amine], the IC50 in assay [1] and in assay [2] was 0.01 to 100 nM each time. The same compound displayed an EC50 in assay [3] of 0.01 to 100 nM.

Regarding `C[C@@H](F)[C@H](N)Cc1oc2c(NCc3nccs3)cc(Cl)nc2c1Br` [Compound 91, 2-[(2R,3R)-2-amino-3-fluorobutyl]-3-bromo-5-chloro-7-{[(1,3-thiazol-2-yl)methyl]amino}-1-oxa-4-azaindene], the IC50 in assay [1] and in assay [2] was 501 to 5000 nM in each case. For the same compound, the EC50 in assay [3] was 501 to 5000 nM.

Take `N[C@H](Cc1oc2c(NCc3cccs3)cc(Cl)nc2c1Br)C(F)F` [Compound 242, 2-[(R)-2-amino-3,3-difluoropropyl]-3-bromo-5-chloro-7-thenylamino-1-oxa-4-azaindene]: the IC50 in assay [1] and in assay [2] was 101 to 500 nM in each case. The compound also returned an EC50 in assay [3] of 101 to 500 nM.

In the case of `C[C@H](O)[C@H](N)Cc1oc2c(NCc3cccs3)cc(Cl)nc2c1Br` [Compound 125, (2S,3R)-3-amino-4-(3-bromo-5-chloro-7-thenylamino-1-oxa-4-aza-2-indenyl)-2-butanol], the IC50 in assay [1] and in assay [2] was 0.01 to 100 nM each time. In assay [3], this compound gave an EC50 of 0.01 to 100 nM.

In the case of `C[C@H](N)Cc1oc2c(NCc3ccc(F)cc3)cc(Cl)nc2c1Br` [Compound 338, 2-[(S)-2-aminopropyl]-3-bromo-5-chloro-7-{[(p-fluorophenyl)methyl]amino}-1-oxa-4-azaindene], the IC50 in assay [1] and in assay [2] was 501 to 5000 nM in each case. This compound also registered an EC50 in assay [3] of 501 to 5000 nM.

For `C[C@@H](O)[C@H](N)Cc1oc2c(NCc3cccs3)cc(Cl)nc2c1Br` [Compound 126, (2R,3R)-3-amino-4-(3-bromo-5-chloro-7-thenylamino-1-oxa-4-aza-2-indenyl)-2-butanol], the IC50 in assay [1] and in assay [2] was 101 to 500 nM each time. Further, the EC50 in assay [3] fell in the range of 101 to 500 nM.

On to `Cc1c(C[C@@H](N)[C@H](C)F)oc2c(NCc3nccs3)cc(Cl)nc12` [Compound 106, 2-[(2R,3S)-2-amino-3-fluorobutyl]-5-chloro-3-methyl-7-{[(1,3-thiazol-2-yl)methyl]amino}-1-oxa-4-azaindene], for which the IC50 in assay [1] and in assay [2] was 101 to 500 nM each time. Further, the EC50 in assay [3] was 101 to 500 nM.

For the compound `N[C@@H](CO)Cc1oc2c(NCc3ccco3)cc(Cl)nc2c1Cl` [Compound 23, (R)-2-amino-3-[3,5-dichloro-7-(furfurylamino)-1-oxa-4-aza-2-indenyl]-1-propanol], the IC50 in assay [1] and in assay [2] was 0.01 to 100 nM throughout. Moreover, the EC50 in assay [3] lay within 0.01 to 100 nM.

`COC[C@H](N)Cc1oc2c(NCc3cccs3)cc(Cl)nc2c1Br` [Compound 37, 2-[(R)-2-amino-3-methoxypropyl]-3-bromo-5-chloro-7-thenylamino-1-oxa-4-azaindene]: the IC50 in assay [1] and in assay [2] was 0.01 to 100 nM throughout. In assay [3], this compound yielded an EC50 of 0.01 to 100 nM.

With `C#Cc1c(C[C@H](C)N)oc2c(NCc3cccs3)c(F)c(Cl)nc12` [Compound 276, 2-[(S)-2-aminopropyl]-5-chloro-3-ethynyl-6-fluoro-7-thenylamino-1-oxa-4-azaindene], the IC50 in assay [1] and in assay [2] was 501 to 5000 nM each time. The same compound yielded an EC50 in assay [3] of 501 to 5000 nM.

In the case of `C#Cc1c(C[C@@H](N)COC(F)F)oc2c(NCc3cccs3)cc(Cl)nc12` [Compound 196, 2-[(R)-2-amino-3-difluoromethoxypropyl]-5-chloro-3-ethynyl-7-thenylamino-1-oxa-4-azaindene], the IC50 in assay [1] and in assay [2] was 0.01 to 100 nM in each case. This compound also showed an EC50 in assay [3] of 0.01 to 100 nM.

For `N[C@@H](CO)C(F)(F)c1oc2c(NCc3cccs3)cc(Cl)nc2c1Br` [Compound 192, (S)-2-amino-3-(3-bromo-5-chloro-7-thenylamino-1-oxa-4-aza-2-indenyl)-3,3-difluoro-1-propanol], the IC50 in assay [1] and in assay [2] was 101 to 500 nM in each case. This compound also yielded an EC50 in assay [3] of 101 to 500 nM.

As for `C#C[C@H](N)Cc1oc2c(NCc3cccs3)cc(Cl)nc2c1Br` [Compound 88, 2-[(R)-2-amino-3-butynyl]-3-bromo-5-chloro-7-thenylamino-1-oxa-4-azaindene], the IC50 in assay [1] and in assay [2] was 0.01 to 100 nM in each case. In assay [3], this compound showed an EC50 of 101 to 500 nM.

On to `C#Cc1c(C[C@@H](N)[C@H](C)F)oc2c(NCc3ccco3)cc(Cl)nc12` [Compound 122, 2-[(2R,3S)-2-amino-3-fluorobutyl]-5-chloro-3-ethynyl-7-(furfurylamino)-1-oxa-4-azaindene], for which the IC50 in assay [1] and in assay [2] was 0.01 to 100 nM throughout. For the same compound, the EC50 in assay [3] lay in the range of 0.01 to 100 nM.

Regarding `C[C@H](O)Cc1oc2c(NCc3cccs3)cc(Cl)nc2c1Br` [Compound 213, (S)-1-(3-bromo-5-chloro-7-thenylamino-1-oxa-4-aza-2-indenyl)-2-propanol], the IC50 in assay [1] and in assay [2] was 501 to 5000 nM each time. The EC50 in assay [3] was in the range of 501 to 5000 nM.

Turning to `CC#Cc1cc(NCc2cccs2)c2oc(C[C@H](C)N)c(Br)c2n1` [Compound 160, 2-[(S)-2-aminopropyl]-3-bromo-5-(1-propynyl)-7-thenylamino-1-oxa-4-azaindene], the results for the IC50 in assay [1] and in assay [2] were 501 to 5000 nM and 101 to 500 nM, respectively. In assay [3], this compound yielded an EC50 of 101 to 500 nM.

For the compound `C#Cc1cc(NCc2cccs2)c2oc(C[C@@H](N)C3CC3)c(C#C)c2n1` [Compound 181, 2-[(R)-2-amino-2-cyclopropylethyl]-3,5-diethynyl-7-thenylamino-1-oxa-4-azaindene], the IC50 in assay [1] and in assay [2] was 501 to 5000 nM each time. Besides, in assay [3], the concentration giving a half-maximal response (EC50) lay in the range of 501 to 5000 nM.

For the compound `NC(Cc1oc2c(NCc3cccs3)cc(Cl)nc2c1Br)CC1(F)CC1` (stereo not drawn) [Compound 85, 2-[2-amino-3-(1-fluorocyclopropyl)propyl]-3-bromo-5-chloro-7-thenylamino-1-oxa-4-azaindene], the IC50 in assay [1] and in assay [2] was 101 to 500 nM throughout. The compound also had an EC50 in assay [3] of 101 to 500 nM.

In the case of `C#Cc1c(C[C@@H](N)C2CC2)oc2c(NCc3cccs3)cc(Cl)nc12` [Compound 180, 2-[(R)-2-amino-2-cyclopropylethyl]-5-chloro-3-ethynyl-7-thenylamino-1-oxa-4-azaindene], the IC50 in assay [1] and in assay [2] was 101 to 500 nM in each case. The compound also displayed an EC50 in assay [3] of 101 to 500 nM.

On to `C[C@H](N)C(F)(F)c1oc2c(NCc3cccs3)cc(Cl)nc2c1Cl` [Compound 189, 2-[(S)-2-amino-1,1-difluoropropyl]-3,5-dichloro-7-thenylamino-1-oxa-4-azaindene], for which the IC50 in assay [1] and in assay [2] was 101 to 500 nM in each case. Moreover, the EC50 in assay [3] was in the range of 101 to 500 nM.

With `Cc1cc(NCc2cccs2)c2oc(C[C@@H](N)CO)c(Br)c2n1` [Compound 59, (R)-2-amino-3-(3-bromo-5-methyl-7-thenylamino-1-oxa-4-aza-2-indenyl)-1-propanol], the IC50 in assay [1] and in assay [2] was 101 to 500 nM throughout. In assay [3], this compound displayed an EC50 of 0.01 to 100 nM.

As for `C[C@H](N)Cc1oc2c(NCc3cccs3)cc(Cl)nc2c1-c1cnco1` [Compound 310], the IC50 in assay [1] and in assay [2] was 101 to 500 nM throughout. The EC50 in assay [3] was in the range of 101 to 500 nM.

Take `C[C@@H](F)[C@H](N)Cc1oc2c(NCc3sccc3F)cc(Cl)nc2c1Br` [Compound 97, 2-[(2R,3R)-2-amino-3-fluorobutyl]-3-bromo-5-chloro-7-{[(3-fluoro-2-thienyl)methyl]amino}-1-oxa-4-azaindene]: the IC50 in assay [1] and in assay [2] was 501 to 5000 nM in each case. In assay [3], this compound returned an EC50 of 501 to 5000 nM.

Turning to `N[C@@H](COC(F)F)Cc1oc2c(NCc3cccs3)cc(Cl)nc2c1Cl` [Compound 188, 2-[(R)-2-amino-3-difluoromethoxypropyl]-3,5-dichloro-7-thenylamino-1-oxa-4-azaindene], the IC50 in assay [1] and in assay [2] was 101 to 500 nM throughout. The same compound gave an EC50 in assay [3] of 0.01 to 100 nM.

As for `[2H]C([2H])(c1oc2c(NCc3cccs3)cc(Cl)nc2c1Br)[C@@H](N)COC` [Compound 304, 2-[(R)-2-amino-3-methoxy(1,1- ^2H2)propyl]-3-bromo-5-chloro-7-thenylamino-1-oxa-4-azaindene], the IC50 in assay [1] and in assay [2] was 0.01 to 100 nM in each case. Besides, the EC50 in assay [3] fell in the range of 0.01 to 100 nM.

(Values after patent US20260001889A1, “COMPOSITIONS USEFUL FOR MODULATING SPLICING” (Skyhawk Therapeutics, Inc., priority 2022, published 2026).)
